# Patent publication US9642854B2, “Flavanoid compounds and process for preparation thereof” (Council of Scientific & Industrial Research, priority 2009, dated 2017)
# Like-named read-outs stand apart in the source and are kept apart here.
# Assays:
# Assay type in all cases: cell-based, Helicobacter pylori
# [1] = tested on: H. pylori; test: Anti H. pylori screening by disc diffusion susceptibility assay; settings: for Inhibition Zone Diameter (mm): spacer molecules; for Inhibition zone diameter (score): 100 and 200 mg/disc (so in the source)
# Procedure: The discs were impregnated with […] of each of the compounds, dissolved either in ethanol or DMSO, and the zone of inhibition was measured after 72 h of growth under microaerophilic conditions at 37° C. Inhibition zone diameter ranging 10-20 mm was given a score of ^+, 20-30 mm as ^++ and that of >30 mm as ^+++, as obtained employing dose range of […]/disc. The detailed structural information of the molecules is provided under ‘Description of the Compounds’.
# Methods and protocols for the determination of inhibition zone diameter are as stated under Experiment 1, and that of MIC values by microbroth dilution assay as in Experiment 3. ‘Nil’ means zone of inhibition below 10 mm.
# The anti H. pylori activity of all 16 flavonoid molecules, 2 naturally isolated and 14 synthetic derivatives, was screened by disc diffusion sensitivity assay employing 2 clinical strains HP001 and HP002, and three standard strains ATCC® 700392, 43504 and 49503. A 0.5 mL inoculum (10^8 CFU/mL) for each bacterial strain tested was flooded on freshly prepared Brain Heart Infusion (BHI) agar plates supplemented with 7% FCS, 0.5% IsoVitalex and 0.0025% DENT® and the discs (5 mm diameter) containing different compounds or antibiotics (dissolved either in ethanol or DMSO) were placed on the agar surface. After incubation for 3 days in a microaerophilic atmosphere at 37° C., the diameter of the zone of inhibition was measured (Glupczynsky, 1996; McNulty et al., 2002).
# [2] = tested on: H. pylori; test: MIC and MBC by microbroth dilution assay; settings: Helicobacter pylori
# Procedure: The compounds, serially diluted ([…]) in Muller Hinton broth containing 5% FCS, were incubated in 96-well microtitre plate containing fresh cultures of HP001 (˜5.5×10^6 CFU/mL) or ATCC® 43504 (2.65×10^6 CFU/ml) in a final volume of […]. After 72-h of incubation under microaerophilic condition at 37° C., […] of cultures wherein no growth had been detected were streaked on fresh brain heart infusion agar plates for MBC determination.
# In microbroth dilution assay employing one clinical and one standard strain, both the bacteriostatic and the bactericidal values were determined for all four compounds as well as for clarithromycin (Table 4). Two-fold serial dilutions were prepared in 96-well microtitre plate containing a total volume of 0.1 mL Mueller Hinton broth supplemented with 5% FCS. A 3-day old liquid culture was diluted 10 times in Mueller Hinton broth and 0.1 mL of these cultures was inoculated into each well to give a final concentration of ˜10^6 CFU/mL. The plates were incubated for 3 days in a microaerophilic atmosphere at 37° C. Following incubation, the plates were examined visually, and the lowest concentration showing complete inhibition of growth was recorded as the MIC of the respective compound (Hachem et al., 1996). Aliquots (0.1 mL) of 72-h culture in which no growth had been detected were taken from the wells of the above microtitre plates and used to streak on fresh BHI agar plates.
# [3] = tested on: H. pylori; test: Time kill kinetic analyses in biphasic culture; settings: for killing at MIC dose (1×MIC): HP001, up to 36 h
# [4] = tested on: H. pylori; test: Acid stability study (pH ~2.0, 2 h, then MIC/MBC by microbroth dilution); settings: Helicobacter pylori
# Procedure: Details of experimental protocol are described under Experiment 7. MIC/MBC values were determined by microbroth dilution assay.
# A 100 μL stock of CPP-1, NMC-1, NMC-2 and CPP-3 (1-2 mg/mL) was treated with 20-30 μL of 0.12 NHCl to bring the pH of the solution to ^˜2.0, and kept at 25° C. for 2 h (Funatogawa et al., 2004). Such acid-treated samples were then serially diluted (2 fold) with medium in 96-well microtitre plates to determine the MIC and the MBC values by microbroth dilution assay as detailed under Experiment 3.
# [5] = tested on: H. pylori; test: Anti H. pylori spectrum (MIC) by agar dilution method; settings: Helicobacter pylori; for MIC50: MIC against 50% of the strains of the panel, read-out: MIC50
# Procedure: MIC was determined using agar dilution assay following the CLSI® guidelines. Six clinical isolates and four standard strains were used for this study. Five microlitre of freshly grown 3-day old culture (˜1×10^8 CFU/mL) was streaked in plates containing 2-fold serial dilution of the compounds ranging […], and incubated under microaerophilic condition at 37° C. After 72 h, the plates were inspected visually for absence of growth to assess the MIC values. The experiment was performed in duplicates. MIC50 is defined as the dose (μg/ml) required for killing 50% of the strains.
# Plates contained two-fold serial dilutions of the compounds ranging from […]. Five microlitres of 3-day old freshly grown H. pylori culture (^˜10^8 CFU/mL) was inoculated onto drug-containing BHI agar plates supplemented with 7% FCS, 0.5% IsoVitalex and 0.0025% DENT®, which were then incubated for 3 days under microaerophilic condition at 37° C.
# [6] = ATCC43504, microbroth dilution, ATCC 43504
# [7] = ATCC standard strain 43504, 72 h
# [8] = ATCC standard strain 49503, 72 h
# [9] = ATCC standard strain 700392, 72 h
# [10] = 2 h, pH ~2.0, 2 h, 25° C., 43504, read-out: MBC, Acid treated
# [11] = 2 h, pH ~2.0, 2 h, 25° C., 43504, read-out: MIC, Acid treated
# [12] = 2 h, pH ~2.0, 2 h, 25° C., HP001, read-out: MBC, Acid treated
# [13] = 2 h, pH ~2.0, 2 h, 25° C., HP001, read-out: MIC, Acid treated
# [14] = not acid treated, 43504, read-out: MBC, Control
# [15] = not acid treated, 43504, read-out: MIC, Control
# [16] = not acid treated, HP001, read-out: MBC, Control
# [17] = not acid treated, HP001, read-out: MIC, Control
# [18] = 72 h, panel of 6 clinical isolates and 4 standard strains, read-out: MIC Range
# [19] = clinical strain HP001, read-out: MIC
# [20] = clinical strain HP002, read-out: MIC
# [21] = clinical strain HP003, read-out: MIC
# [22] = clinical strain HP004, read-out: MIC
# [23] = clinical strain HP005, read-out: MIC
# [24] = clinical strain HP006, read-out: MIC
# [25] = standard strain 43504, read-out: MIC
# [26] = standard strain 43629, read-out: MIC
# [27] = standard strain 49503, read-out: MIC
# [28] = standard strain 700392, read-out: MIC
smiles,measurement,setting,value
COCCCN1CCOCC1 [reference compound],Inhibition Zone Diameter (mm),[1]; ATCC 43504,Nil (‘Nil’ means zone of inhibition below 10 mm.)
same,Inhibition Zone Diameter (mm),[1]; HP001,Nil (‘Nil’ means zone of inhibition below 10 mm.)
same,MIC,[2]; [6],> 400 mg/L
same,MIC,"[2]; microbroth dilution, HP001",> 400 mg/L
"O=c1cc(-c2ccccc2)oc2cc(OCCCCN3CCCCC3)cc(O)c12 [CPP-3, 5-Hydroxy-2-phenyl-7-(4-piperidin-1-yl-butoxy)-chromen-4-one]",Inhibition zone diameter (score),[1]; [7],++ (20-30 mm as ^++)
same,Inhibition zone diameter (score),[1]; [8],++ (20-30 mm as ^++)
same,Inhibition zone diameter (score),[1]; [9],++ (20-30 mm as ^++)
same,zone of inhibition at 100 µg/disc,"[1]; Helicobacter pylori, 72 h, 100 and 200 μg/disc, majority of the strains, read-out: Activity class by inhibition zone diameter",> 30 mm
same,Inhibition zone diameter (score),"[1]; clinical strain HP001, 72 h",++ (20-30 mm as ^++)
same,Inhibition zone diameter (score),"[1]; clinical strain HP002, 72 h",+++ (that of >30 mm as ^+++)
same,MBC,[2]; [6],25 mg/L
same,MIC,[2]; [6],12.5 mg/L
same,MBC,"[2]; microbroth dilution, HP001",25 mg/L
same,MIC,"[2]; microbroth dilution, HP001",12.5 mg/L
same,time to kill the bacteria totally,"[3]; ATCC 43504, 50 μg/mL",about 12 h
same,time to complete killing,"[3]; ATCC 43504, 2×MIC (clarithromycin 0.08, CPP-1 and NMC-1 12.5, NMC-2 and CPP-3 25 μg/mL)",about 12 h
same,killing at MIC dose,"[3]; ATCC 43504, MIC ([…])",no killing potency
same,killing at MIC dose (1×MIC),[3],could not exert any effect on bactericidal activity
same,MBC,[4]; [10],< 50000 mg/L
same,MIC,[4]; [11],50000 mg/L
same,MBC,[4]; [12],50000 mg/L
same,MIC,[4]; [13],25000 mg/L
same,MBC,[4]; [14],25000 mg/L
same,MIC,[4]; [15],12500 mg/L
same,MBC,[4]; [16],25000 mg/L
same,MIC,[4]; [17],12500 mg/L
same,MIC50,[5]; 72 h,~12.5 mg/L
same,MIC,[5]; [18],6.25 to 100 mg/L
same,MIC50,[5],12.5 mg/L
same,MIC,[5]; [19],25 mg/L
same,MIC,[5]; [20],25 mg/L
same,MIC,[5]; [21],< 12.5 mg/L
same,MIC,[5]; [22],< 12.5 mg/L
same,MIC,[5]; [23],< 12.5 mg/L
same,MIC,[5]; [24],< 12.5 mg/L
same,MIC,[5]; [25],12.5 mg/L
same,MIC,[5]; [26],100 mg/L
same,MIC,[5]; [27],25 mg/L
same,MIC,[5]; [28],25 mg/L
"CN1CCN(CCCCCCOc2cc(O)c3c(=O)cc(-c4ccccc4)oc3c2)CC1 [NMC-1, 5-Hydroxy-7-[6-(4-methyl-piperazin-1-yl)-hexyloxy]-2-phenyl-chromen-4-one]",Inhibition zone diameter (score),[1]; [7],+ (Inhibition zone diameter ranging 10-20 mm was given a score of ^+)
same,Inhibition zone diameter (score),[1]; [8],+ (Inhibition zone diameter ranging 10-20 mm was given a score of ^+)
same,Inhibition zone diameter (score),[1]; [9],+ (Inhibition zone diameter ranging 10-20 mm was given a score of ^+)
same,Inhibition zone diameter (score),"[1]; clinical strain HP001, 72 h",+ (Inhibition zone diameter ranging 10-20 mm was given a score of ^+)
same,Inhibition zone diameter (score),"[1]; clinical strain HP002, 72 h",++ (20-30 mm as ^++)
same,MBC,[2]; [6],25 mg/L
same,MIC,[2]; [6],6.25 mg/L
same,MBC,"[2]; microbroth dilution, HP001",12.5 mg/L
same,MIC,"[2]; microbroth dilution, HP001",6.25 mg/L
same,decrease in cell count within 36 h,"[3]; ATCC 43504, at MIC value (6.25 μg/mL)",1 log
same,killing at MIC dose (1×MIC),[3],could not however exert complete killing even at 36 h
same,MBC,[4]; [10],< 25000 mg/L
same,MIC,[4]; [11],25000 mg/L
same,MBC,[4]; [12],25000 mg/L
same,MIC,[4]; [13],12500 mg/L
same,MBC,[4]; [14],25000 mg/L
same,MIC,[4]; [15],6250 mg/L
same,MBC,[4]; [16],12500 mg/L
same,MIC,[4]; [17],6250 mg/L
same,MIC50,[5]; 72 h,~6.25 mg/L
same,MIC,[5]; [18],6.25 to 12.5 mg/L
same,MIC50,[5],6.25 mg/L
same,MIC,[5]; [19],12.5 mg/L
same,MIC,[5]; [20],6.25 mg/L
same,MIC,[5]; [21],< 6.25 mg/L
same,MIC,[5]; [22],< 6.25 mg/L
same,MIC,[5]; [23],< 6.25 mg/L
same,MIC,[5]; [24],< 6.25 mg/L
same,MIC,[5]; [25],< 12.5 mg/L
same,MIC,[5]; [26],12.5 mg/L
same,MIC,[5]; [27],6.25 mg/L
same,MIC,[5]; [28],12.5 mg/L
CCCN1CCCCC1 [reference compound],Inhibition Zone Diameter (mm),[1]; ATCC 43504,Nil (‘Nil’ means zone of inhibition below 10 mm.)
same,Inhibition Zone Diameter (mm),[1]; HP001,Nil (‘Nil’ means zone of inhibition below 10 mm.)
same,MIC,[2]; [6],> 400 mg/L
same,MIC,"[2]; microbroth dilution, HP001",> 400 mg/L
